The record followed here is ChEMBL document CHEMBL1149701, “Aaptamines as sortase A inhibitors from the tropical sponge Aaptos aaptos” (Bioorg Med Chem Lett, 2007).

In one assay the target is T1, Sortase A (Staphylococcus aureus, UniProt Q9S446).
T1 sequence (Q9S446 whole entry): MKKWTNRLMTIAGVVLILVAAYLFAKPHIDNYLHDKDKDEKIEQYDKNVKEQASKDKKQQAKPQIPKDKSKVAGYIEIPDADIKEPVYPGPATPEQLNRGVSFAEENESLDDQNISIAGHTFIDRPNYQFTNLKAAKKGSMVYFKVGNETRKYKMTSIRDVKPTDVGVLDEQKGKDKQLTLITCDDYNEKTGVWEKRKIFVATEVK
In words: Inhibition of SrtA.

Assay [1] concerns Staphylococcus aureus. In words: Antimicrobial activity against Staphylococcus aureus Newman. It is filed as functional.
Assay [2] deals with Staphylococcus aureus. Briefly: Inhibition of Staphylococcus aureus SKM12 adhesion to fibronectin in relative to wild type. It is filed as functional. Further details: scale not given: the % may be the effect or the level left.
In assay [3] the test system is Staphylococcus aureus. Briefly: Inhibition of Staphylococcus aureus Newman adhesion to fibronectin. The assay is classed as functional, organism-based.

≈ marks a conversion by molar mass, not a printed value. A value given as a limit tells only on which side of the number the result lay.

For orientation: IC50 means the midpoint of a concentration-inhibition curve. Broadly, the MIC is the least concentration at which growth counts as inhibited. `COC1=Cc2ccnc3ccnc(c23)C1=O` [DEMETHYLOXY-AAPTAMINE] had an IC50 against Sortase A of 94.7 µM. In the assay on Staphylococcus aureus [1], the MIC came out at 25 µg/mL (≈ 118 µM).
At Sortase A, `COc1ccc2cc3[n+](cc2c1OC)CCc1cc2c(cc1-3)OCO2.[Cl-]` [BERBERINE CHLORIDE] had an IC50 of 23.4 µM. The minimum inhibitory concentration (MIC) against Staphylococcus aureus [1] was 100 µg/mL.
In turn, `Oc1cc2ccnc3c2c(c1O)NC=C3` [DEMETHYLAAPTAMINE] gave an IC50 against Sortase A of 85.9 µM. Also, the minimum inhibitory concentration (MIC) against Staphylococcus aureus [1] was determined as 25 µg/mL (≈ 125 µM).
In the case of `COc1cc2ccnc3c2c(c1O)N(C)C=C3` [ISOAAPTAMINE], the Activity was 99% with Staphylococcus aureus [2] and “Dose-dependent effect” in the assay on Staphylococcus aureus [3]. Further, it took 16.2 µM to reach half-maximal inhibition against Sortase A (IC50). In the assay with Staphylococcus aureus [1], the MIC worked out at 50 µg/mL (≈ 219 µM).
At Sortase A, `COc1cc2ccnc3c2c(c1OC)NC=C3` [AAPTAMINE] gave an IC50 of 103 µM. In the assay with Staphylococcus aureus [1], this compound displayed a minimal inhibitory concentration (MIC) above 200 µg/mL.
